Assay results taken from patent US20240208898A1, “ENAMINE N-OXIDES: SYNTHESIS AND APPLICATION TO HYPOXIA-RESPONSIVE PRODRUGS AND IMAGING AGENTS” (DANA-FARBER CANCER INSTITUTE, INC., priority 2021, published 2024).
“Also recorded” adds a separate entry of the source.

Tested on: BxPC-3 xenografts
Assay: Immunofluorescence tissue staining of tumor slices
Format: in vivo, mice
Procedure: All animal experiments were performed according to procedures and protocols approved by the Dana-Farber Cancer Institute Institutional Animal Care and Use Committee. Bx-PC3 cells were grown to confluency in antibiotic-free RPMI supplemented with 10% FBS, trypsinized, and washed three times with ice cold PBS (50 mL). Cells were resuspended in PBS at a concentration of 1.0×10^7 cells per 100 μL. 8-week old, female, homozygous NU/J mice (Jackson Laboratory) were subcutaneously injected with 1.0×10^7 Bx-PC3 cells over the right hind flank under isoflurane anesthesia. Experiments were performed when tumors reached 1000 mm^3 in size.
Mice were intraperitoneally injected with a 200 μL bolus of 25.8 mM pimonidazole and enamine N-oxide probe in 0.9% saline. Two min prior to sacrifice, mice were intravenously injected with 15 mg/kg Hoechst 33342 in 100 μL of PBS. After 1 hour, mice were sacrificed by cervical dislocation under isoflurane anesthesia. Tumors were resected and fixed in 4% paraformaldehyde in PBS for 24 hours at 4° C. with shaking. Tumors were then stored in 70% ethanol/water and submitted to the Rodent Histopathology Core at the Dana-Farber/Harvard Cancer Center for paraffin sectioning and H&E staining on glass slides. Paraffin embedded slices on glass slides were first rehydrated by successively immersing in xylenes twice for 10 minutes, 100% ethanol twice for 10 minutes, 95% ethanol/water once for 5 minutes, 70% ethanol/water for 5 minutes, 50% ethanol/water for 5 minutes, water three times for 20 seconds, and ice cold PBS+0.3% Triton X-100 once for 10 minutes. For slices to be stained by HIF1α and CD31, slides were then incubated at 90° C. in 10 mM citrate, pH 6.0 for 15 minutes. After 15 minutes, the solution was removed from heat and allowed to cool to room temperature. […] Slices were then imaged using a widefield fluorescence inverted microscope (Nikon Ti Eclipse) at the Dana-Farber Confocal and Light Microscopy Core according to the settings listed in the “General biological instrumentation” section.

SMILES	co-localization with pimonidazole in tumor tissue slices (tumor of mouse imaged by NIR probe, CuAAC fluorescent labeling)	localization in tumor tissue slices vs CD31 endothelial cell marker (intraperitoneal, CD31, DAPI)	localization in tumor tissue slices vs hypoxia markers (intraperitoneal, markers GLUT1, HIF1α, CAIX, pimonidazole)
C#CCN(CCCCCC(F)/C=C/[N+]([O-])(CC)CC)C(=O)c1ccc(C2=c3cc4c(cc3[Si](C)(C)c3cc5c(cc32)CCN5C)=[N+](C)CC4)c(C)c1 (stereo not drawn) [probe 42, Si700-enamine N-oxide]	robust co-localization		
C#CCCCCC(F)/C=C/[N+]([O-])(CC)CC (stereo not drawn) [probe 39, (E)-N,N-diethyl-3-fluoronon-1-en-8-yn-1-amine oxide]		vasculature is primarily localized in regions distal to regions that are labeled well by enamine N-oxide 39 staining	strong correlation; also recorded: co-localized with the GLUT1 and pimonidazole hypoxia markers
